Experimental data published in patent publication US5840720A (priority 1995, dated 1998).
Several values for one entry are separate records, joined by “and”; a condition that tells them apart may be missing. Equal entries are not always repeated. Where two headings read alike, the source gives them in different places. Where no end group is shown, it is not given here.

Tests used:
[1] = system: capsaicin-induced heart rate changes; assay type: in vivo, Wistar rats
[2] = system: isolated guinea-pig right and left atria
[3] = system: capsaicin-induced hypotensive reflex; assay type: in vivo, rats
[4] = system: capsaicin-induced blood pressure changes; assay type: in vivo, Wistar rats
[5] = system: calcium channel in the isolated guinea-pig atrium; experiment: CaCl2-induced chronotropic and inotropic effects in isolated guinea-pig atria; conditions: for inhibition of calcium-induced chronotropic and inotropic effects: pretreatment, increasing CaCl2, right and left atria
Protocol: Each point represents the mean of six experiments; vertical bars represent the S.E.M.
FIGS. 6A-6B Effect of CAPCNC6 (10 μM) on the positive chronotropic (spontaneously beating right atrium) and inotropic (electrically-driven left atria) effect of increasing Ca^2+ concentrations in guinea pigs. Beating rate and tension were expressed as % of control values. Data represents the mean±S.E.M. (n=7).
D. Effects of compound on the calcium channel in the isolated guinea-pig atrium

capsaicin = conditions: cited from earlier work
[6] = system: isolated guinea-pig bronchi; set-up: species or system guinea pig (Hartley)
[7] = system: isolated guinea-pig atria; conditions: cited from earlier work; for action potential duration: guinea pig atria
[8] = system: isolated guinea-pig ileum; experiment: Capsaicin, substance P and carbachol-induced contractility of isolated guinea-pig ileum; conditions: for inhibition of substance P-induced ileum contraction: SP 0.1 μM; for contraction of ileum smooth muscle: carbachol as control, substance P 0.1 μM
Protocol: FIG. 4 The effects of CAPBZ on response of guinea-pig ileum to capsaicin (10 μM), substance P (SP, 0.1 μM), and carbachol (0.5 μM). […] Thirty minutes following washout, responses to SP, and carbachol were recovered.
C. Antagonist activity of compound on capsaicin and substance Pinduced contractilities of isolated guinea-pig ileum
The abdominal incisions for the guinea pig were made and ilea were isolated and placed in cold (4° C.) Tyrode's solution. 2.5 cm segments of ileum were then trimmed and suspended in an organ bath containing 20 ml low calcium Kreb's solution, aerated with 95% O2 and 5% CO2 at 37° C. As the method reported by M. Takaki et al. (Eur. J. Pharmacol. 174, 5762, 1989).
This effect of capsaicin or substance P was inhibited in the presence of 1.0-100 μM of compound 1 (CAPBZ), concentration-dependently.

[9] = system: isolated guinea-pig right and left atrium; experiment: hCGRP-induced beating and tension of isolated guinea-pig atria
guinea-pig bronchi = conditions: cited from earlier work
[10] = system: neuronal calcium currents; conditions: cited from earlier work
airway = conditions: inhalation; cited from earlier work
neuronal sodium currents = conditions: cited from earlier work
[11] = system: isolated guinea-pig trachea; experiment: Capsaicin-induced contractility of isolated guinea-pig trachea; set-up: species or system guinea pig (Hartley); conditions: 0.01-30 μM capsaicin, cumulative
Excerpt: Each point represents mean±S.E.M of six experiments.
A. Antagonist activity of compounds on capsaicin-induced contractility of isolated guinea-pig bronchi and trachea
Adult guinea pigs (Hartley), weighing 350-450 g, were sacrificed by a blow on the head followed by cervical dislocation. The bronchi and trachea were removed from the lungs, cleaned of all parenchyma, and immediately placed in Kreb's solution. As the method reported by M. G. Belvisi et al. (Eur. J. Pharmacol. 215, 341-4, 1992).

[12] = 0.1-10 μM compound, 1.0 μM capsaicin, concentration-dependent
[13] = capsaicin 0.01-30 μM cumulative, compound 1 and 3 at 1.0-100 μM, capsazepine 1-10 μM
[14] = fast phase, 15 min infusion, one compartment model
[15] = slow phase, 15 min infusion, one compartment model
[16] = pretreatment i.t. 1 nmole, capsaicin i.a. 10 μg/kg, mean±S.E.M., n=6, control (None) -19.6 ± 1.9
[17] = A phase, 15 min i.v. infusion 100 μg/kg/min, capsaicin 10 μg/kg i.v., one compartment model
[18] = C phase, 15 min i.v. infusion 100 μg/kg/min, capsaicin 10 μg/kg i.v., one compartment model

N-[(4-hydroxy, 5-diethylaminomethyl)-3-methyoxybenzyl] nonamide [Compound 11]
Recovery half-life (t1/2) of capsaicin-induced heart rate changes, fast phase ([1]; rat, in vivo): 11.95 min
Recovery half-life (t1/2) of capsaicin-induced heart rate changes, slow phase ([1]; rat, in vivo): 15.75 min
effect of pretreatment on capsaicin-induced inotropic and chronotropic response [2]: decreased the effect of capsaicin
inhibition of capsaicin-induced positive inotropic and chronotropic effect [2]: significantly inhibited
depressor reflex response: capsaicin-induced blood pressure changes after pretreatment ([3]; rat, in vivo): 19.2 ± 2.5
duration order of antagonist activities ([4]; rat, in vivo): NVABZ>NVABI>capsazepine
efficacy order of antagonist activities, A effect ([4]; rat, in vivo): capsazepine>NVABZ>NVABI
efficacy order of antagonist activities, B effect ([4]; rat, in vivo): NVABI>capsazepine>NVABZ
efficacy order of antagonist activities, C effect ([4]; rat, in vivo): capsazepine>NVABI>NVABZ
recovery of antagonist activity to basal level ([4]; rat, in vivo): recovered to basal level by saline infusion for 30, 45, and 60 minutes gradually
Recovery half-life (t1/2) of capsaicin-induced blood pressure changes, A phase ([4]; rat, in vivo, iv): 10.67 min
Recovery half-life (t1/2) of capsaicin-induced blood pressure changes, C phase ([4]; rat, in vivo, iv): 21.75 min

CCCCCCCCC(=O)NCc1cc2c(c(OC)c1)OCN(CCCCCC)C2 [Compound 6, N-[hexylamino-(4-oxymethene, 5-methylene)-3-methoxybenzyl] nonanamide]
inhibition of capsaicin-induced positive inotropic and chronotropic effect [2, 12]: significantly inhibited
inhibition of calcium-induced chronotropic and inotropic effects [5]: could inhibit these calcium effects

CCCCCCCCC(=O)NCc1ccc(OCC(O)CO)c(OC)c1 (centres unmarked) [glyceryl nonivamide]
capsaicin antagonism / agonism (capsaicin): selective capsaicin agonist

[N-Allylamino-(4-oxymethylene, 5-methylene)-3-methoxybenzyl] nonanamide [Compound 3]
inhibitory effect in bronchi compared with trachea [6]: more effective in bronchi than in trachea
shift of capsaicin-induced contraction in bronchi [6]: shifted rightward

[Ca+2].[Cl-].[Cl-] [CaCl2, reference compound]
inotropic effect ([5]; cumulative CaCl2, electrically driven left atrium): positive inotropic effect
chronotropic effect ([5]; cumulative CaCl2, spontaneously beating right atrium): positive chronotropic effect

CGRP
action potential duration [7]: prolong action potential duration

CCCCCCCCC(=O)NCc1cc2c(c(OC)c1)OCN(c1ccc(C(=O)OCC)cc1)C2 [Compound 1, N[P-(carboxylic acid ethyl ester)-phenylamine-(4-oxymethylene, 5-methylene)-3-methoxybenzyl] nonanamide]
inhibition of substance P-induced ileum contraction ([8]; compound 1.0-100 μM): inhibited
inhibition of substance P-induced ileum contraction ([8]; compound 1.0-100 μM, listed as CAPBZ): concentration-dependently reduction of response
reduction of ileum response to carbachol ([8]; carbachol 0.5 μM, FIG. 4): concentration-dependently reduction of response
inhibition of capsaicin-induced ileum contraction ([8]; compound 1.0-100 μM, capsaicin 10 μM, concentration-dependent): inhibited
recovery of responses to SP and carbachol after washout ([8]; thirty minutes following washout): recovered
change of CGRP-induced contractilities after CGRP pretreatment ([9]; after pretreatment with CGRP for 30 minutes): could not change CGRP-induced contractilities
inhibition of hCGRP-induced beating and tension ([9]; right and electrically driven left atrium, FIG. 7 CAPBZ 50 μM): not inhibited
inhibitory effect in bronchi compared with trachea ([6]; against capsaicin-induced contraction): more effective in bronchi than in trachea
shift of capsaicin-induced contraction in bronchi [6, 13]: shifted rightward
inhibition of capsaicin-induced positive inotropic and chronotropic effect [2, 12]: significantly inhibited
effect of pretreatment on capsaicin-induced inotropic and chronotropic response ([2]; pretreatment for 30 min, capsaicin 1 μM, FIGS. 3A-3D): decreased the effect of capsaicin
inhibition of calcium-induced chronotropic and inotropic effects [5]: could inhibit these calcium effects

C[N+](C)(C)CCOC(N)=O [carbachol, reference compound]
contraction of ileum smooth muscle ([8]; capsaicin 10 μM): maximum contraction

Oc1cc2c(cc1O)CN(C(=S)NCCc1ccc(Cl)cc1)CCC2 [Capsazepine, reference compound]
inhibition of contractile response evoked by capsaicin or electrical field stimulation (guinea-pig bronchi): effective in inhibiting the contractile response
Recovery half-life (t1/2) of capsaicin-induced heart rate changes, fast phase [1, 14]: 1.36 min
Recovery half-life (t1/2) of capsaicin-induced heart rate changes, slow phase [1, 15]: 3/52
shift of capsaicin-induced contraction in bronchi [6, 13]: shifted rightward
depressor reflex response: capsaicin-induced blood pressure changes after pretreatment [3, 16]: 25.8 ± 3.0
capsaicin antagonism / agonism (capsaicin): competitive capsaicin antagonist
efficacy order of antagonist activities, A effect ([4]; A effect): capsazepine>NVABZ>NVABI
Recovery half-life (t1/2) of capsaicin-induced blood pressure changes, A phase [4, 17]: 2.73 min
efficacy order of antagonist activities, B effect ([4]; B effect): NVABI>capsazepine>NVABZ
Recovery half-life (t1/2) of capsaicin-induced blood pressure changes, B phase ([4]; 15 min i.v. infusion 100 μg/kg/min, capsaicin 10 μg/kg i.v., one compartment model): 2.89 min
efficacy order of antagonist activities, C effect ([4]; C effect): capsazepine>NVABI>NVABZ
Recovery half-life (t1/2) of capsaicin-induced blood pressure changes, C phase [4, 18]: 3.78 min
duration order of antagonist activities ([4]; rat, in vivo): NVABZ>NVABI>capsazepine
recovery of antagonist activity to basal level ([4]; saline infusion after 100 μg/kg/min infusion): recovered to basal level by saline infusion for 30, 45, and 60 minutes gradually

COc1cc(CNC(=O)CCCC/C=C/C(C)C)ccc1O [Capsaicin]
inhibition of neuronal calcium currents [10]: inhibit neuronal calcium currents
contraction of ileum smooth muscle ([8]; capsaicin 10 μM): weaker contractions
contraction of isolated guinea-pig bronchi ([6]; 0.01-30 μM capsaicin, cumulative): concentration-dependent increase in contraction
inotropic and chronotropic effect [2]: positive inotropic and chronotropic response
inotropic and chronotropic effect ([2]; listed as capsaicin): positive inotropic and chronotropic effect
airway resistance (airway): increase airway resistance and leads to bronchoconstriction
inhibition of neuronal sodium currents (neuronal sodium currents): inhibit neuronal sodium currents
contraction of isolated guinea-pig trachea [11]: concentration-dependent increase in contraction
action potential duration [7]: prolong action potential duration
chronotropic and inotropic effects ([7]; isolated guinea-pig atria): potent positive chronotropic and inotropic effects

substance P: SP (substance P) (RPKPQQFFGLM; ends and bridges not checked; UniProt P20366 58-68, looked up) [reference compound]
contraction of ileum smooth muscle ([8]; capsaicin 10 μM): weaker contractions

N[p-ethylketone-phenylamino-(4-oxymethylene, 5-methylene)-3-methoxybenzyl] nonamide [Compound 12]
Recovery half-life (t1/2) of capsaicin-induced heart rate changes, fast phase [1, 14]: 5.33 min
Recovery half-life (t1/2) of capsaicin-induced heart rate changes, slow phase [1, 15]: 6.00 min
inhibition of capsaicin-induced positive inotropic and chronotropic effect [2, 12]: significantly inhibited
depressor reflex response: capsaicin-induced blood pressure changes after pretreatment [3, 16]: -10.6 ± 2.5
Recovery half-life (t1/2) of capsaicin-induced blood pressure changes, A phase [4, 17]: 4.30 min
Recovery half-life (t1/2) of capsaicin-induced blood pressure changes, B phase ([4]; 15 min i.v. infusion 100 μg/kg/min, capsaicin 10 μg/kg i.v., one compartment model, listed as NVADA): 9.00 min and 9.01 min
Recovery half-life (t1/2) of capsaicin-induced blood pressure changes, C phase [4, 18]: 4.49 min
